Reference: patent US10101331B2, “Methods of evaluating patients using E-cadherin or vimentin” (AGIOS PHARMACEUTICALS, INC, priority 2012, dated 2018)
Entries after “also recorded” stand apart in the source; their conditions may differ.

Tests used:
Type in all cases: cell-based
LXF-289 = test: Lung cancer cell line panel screened for sensitivity to BPTES, 72 hr proliferation assay
NCI-H1703 = test: as above
A427 = test: 72 hr proliferation assay using CellTiter-Glo in 96-well format; details: 72 hr treatment
Text: (§1) FIGS. 8A-8C depict the GLS1 dependence in selected cancer cell lines. FIG. 8A depicts a western blot analysis of GLS1 and GLS2 protein levels in indicated cell lines. KGA and GAC alternative splice variants are indicated.
(§2) Proc of the National Academy of Sciences 109, 1092 (2012); McBryant Supra; DeLaBarre, Supra). […] This loop differs in primary sequence between GLS1 and GLS2, thereby explaining the differential response of the two isoforms.

CAKI-1 = test: as above; details: 72 hr treatment
Text: as §1, §2

HCT116 = test: as above; details: 72 hr treatment
Text: as §1, §2

HUH7 = test: as above; details: 72 hr treatment
Text: as §1, §2

HepG2 = test: as above; details: 72 hr treatment
Text: as §1, §2

MDA-MB-231 = test: as above; details: 72 hr treatment
Text: as §1, §2

PC3 = test: as above; details: 72 hr treatment
Text: as §1, §2

SKBR3 = test: as above; details: 72 hr treatment
Text: as §1, §2

A427 cells = test: 13C(5)-Gln labeling of glutamate and aspartate, LC/MS; details: 1 hr drug pre-treatment, 2 hr 13C(5)-Gln labeling
Method: A427 parent cells or lines stably expressing pLVX empty vector control (Con), wild-type GAC (GAC), or a BPTES-resistant GAC enzyme (GAC-BR) were treated with indicated concentrations of drugs in a 72 hr proliferation assay. […] Calculated p-values from student t-test, * (3×10^−8), **(10^−9), ^#(10^−7), ^##(2×10^−6).
Several groups have shown that GLS inhibition leads to a decrease in cellular tricarboxylic acid cycle (TCA) intermediates downstream of GLS activity (P. Gao et al. Nature 458, 762 (2009); T. Cheng et al. Proceedings of the National Academy of Sciences 108, 8674 (2011)). Measurement of glutamate (the product of the glutaminase reaction) and aspartate (which derives both carbon and nitrogen from glutamate) are particularly sensitive readouts of glutaminase activity (FIG. 13). ^13C labeled carbon in cells pre-treated with drug was tracked for 1 hr, followed by a 2 hr ^13C(5)-Gln labeling period, via LC/MS.

NCI-H28 = test: Mesothelioma cancer cell lines screened for sensitivity to BPTES; details: NCI-H28, among mesothelioma cancer cell lines
Text: The MET-5A cell line is a normal […] cell line.
Low E-cadherin/high vimentin are well-defined markers of cells that have a mesenchymal phenotype as characterized for example, in any one of the following references: (Yauch et al., (2005) Cin Cancer Res 11:24; Savagner et al., (2010) Ann Oncol. 21(suppl 7): vii89; Thiery et al., (2002) Nature Reviews Cancer June vol 2:442).

[1] = test system: panel of 62 lung cancer cell lines; test: Lung cancer cell line panel screened for sensitivity to BPTES, whole panel
Text: Of these, 44 of the cell lines have been classified as non-small cell lung cancer (NSCLC). […] Four of the top 25 transcriptional/cellular pathways were related to the epithelial-mesenchymal transition (EMT) (ranks 1, 15, 23, 25 of FIG. 2). […] Low E-cadherin/high vimentin are well-defined markers of cells that have a mesenchymal phenotype as characterized for example, in any one of the following references: (Yauch et al., (2005) Cin Cancer Res 11:24; Savagner et al., (2010) Ann Oncol. 21(suppl 7): vii89; Thiery et al., (2002) Nature Reviews Cancer June vol 2:442).

O=C(Cc1ccccc1)Nc1nnc(CCSCCc2nnc(NC(=O)Cc3ccccc3)s2)s1 [BPTES]
Max Inh @ 10 uM (%) (LXF-289; LXF-289, 10 uM): 91%
Mu/max @10 uM (LXF-289; LXF-289, 10 uM): −0.25
μ/μmax @10 uM (LXF-289; LXF-289, 10 uM): −0.25
μ/μmax (LXF-289; LXF-289 cell line): −0.25
Max Inh @ 10 uM (%) (NCI-H1703; NCI-H1703, 10 uM): 87%
Mu/max @10 uM (NCI-H1703; NCI-H1703, 10 uM): 0.30
μ/μmax @10 uM (NCI-H1703; NCI-H1703, 10 uM): 0.30
μ/μmax (NCI-H1703; NCI-H1703 cell line): 0.30
response to BPTES treatment (A427): Maximum response
sensitivity to BPTES treatment (CAKI-1): modest sensitivity
response to the compound (HCT116): minimal response
response to the compound (HUH7): minimal response
sensitivity to BPTES treatment (HepG2): modest sensitivity
sensitivity to BPTES treatment (MDA-MB-231): modest sensitivity
response to the compound (PC3): minimal response
response to BPTES treatment (SKBR3): minimum effect; also recorded: minimal response
13C label accumulation in glutamate and aspartate (A427 cells): decreased label accumulation
sensitivity to BPTES (NCI-H28): most sensitive
share of the 62 lines with significant sensitivity to BPTES (μ/μmax<0.6) [1]: Approximately 30%
